The subject of series [1] is classical complement pathway. In words: In vitro haemolysis assay (inhibition of classical complement pathway). Type of series: cell-based, human. The method, boiled down: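 Serially diluted compound (9 points) was preincubated 15 min at room temperature with diluted human serum, titrated per batch to give 70-90% maximal haemolysis, in Tris/casein buffer pH 7.4 with Mg2+/Ca2+. Antibody-sensitized sheep erythrocytes were then added for 30 min at 37° C, and the reaction was stopped with EDTA. Haemolysis was read at A405, with IC50 from 4PL fit.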

A short description of series [2]: Solubility test at 10 mg/mL (visual inspection and light scattering). Type of series: physicochemical. As to the method: The solubility of compounds was assessed by measuring light scattering over a pH interval from pH 4 to pH 7.5.
Compounds were dissolved in a stock solution of 20 mg/mL in H2O at pH 2.5 or pH 10.
These stock solutions were diluted 1:1 with 200 mM buffered solution to reach a final solution of 10 mg/mL compound in 100 mM buffer. The 5 investigated conditions were (1) acetate pH 4.0, (2) acetate pH 5.0, (3) phosphate pH 6.0, (4) phosphate pH 7 and (5) phosphate pH 7.5.
Visual inspection included manually checking the 96 well plate for wells that are clear or non-clear. In addition to this a picture of the 96 well plate is taken.
Absorbance was measured at four wavelengths: 280 nm, 325 nm, 340 nm and 360 nm in an UV transparent 96 well microplate in a SpectraMax 190 microplate reader (Molecular Devices).
The criteria for this was a combination of visual inspection and light scattering not exceeding 0.1 AU, where values below 0.1 AU are good in visually clear samples. […]

Where [3] appears, read: Table 3, human serum, sensitized sheep red blood cells, read-out: IC50[nM], in vitro analysis of inhibition of hemolysis.
The mark [4] stands for this setting: Table 4, valine 3 versus isoleucine 3 pairs, read-out: CP hemolysis IC50.

The values below come from US20220306695A1, “COMPSTATIN ANALOGUES AND THEIR MEDICAL USES” (priority 2019, published 2022).

Like-named read-outs stand apart in the source and are kept apart here. Starred links: 1 amine or outer side, 2 acyl side, 3 side chain; linkers in the order of their positions; H or OH if unused. Positions of bridges follow the written chain, without caps; N, C: chain ends. Non-standard residues stand in square brackets, D forms with d. Residues, ends and D or L forms follow the SMILES beside them. Groups on a side chain read outwards from the residue. *: point of attachment. Trp(1-Me) = Cn1cc(C[C@H](N)C(=O)O)c2ccccc21; Abu(4-yl) = O=C([C@H](CC[*:3])N[*:1])[*:2]; C18 diacid = O=C(O)CCCCCCCCCCCCCCCCC(=O)*; γGlu = O=C(O)[C@H](CCC(=O)[*:2])N[*:1]; AEEA = NCCOCCOCC(=O)O; Sar = CNCC(=O)O Bounds are passed on as bounds.

As for `CC[C@H](C)[C@@H]1NC(=O)[C@@H](NC(=O)[C@H](Cc2ccccc2)NC(=O)[C@H](C)NC(=O)[C@H](CO)NC(=O)CNC(=O)[C@H](CCC(=O)O)NC(C)=O)CSSC[C@@H](C(=O)N(C)CC(=O)N[C@@H](CCC(=O)O)C(N)=O)NC(=O)[C@H](CCCNC(=N)N)NC(=O)[C@H](Cc2c[nH]cn2)NC(=O)[C@H](CCC(=O)O)NC(=O)CNC(=O)[C@H](Cc2c[nH]c3ccccc23)NC(=O)[C@H](CC(=O)O)NC(=O)[C@H](CCC(N)=O)NC(=O)[C@H](Cc2c[nH]c3ccccc23)NC1=O` [Compound 45] (Ac-EGSAFCIWQDWGEHRC[Sar]E-NH2; disulfide 6-16), in series [1] (setting [3]), the 50% inhibitory concentration (IC50) – broadly, the concentration needed to halve the response being measured – is less than 100 nM. The “Solubility, Condition 1 Acetate pH 4” value in series [2] (10 mg/mL compound in 100 mM acetate pH 4) was “− (denotes lack of solubility at the given condition, as UV absorbance at 340 nm exceeds 0.1 AU and/or it is visibly turbid or contains particles.)”. Also, in series [2] (10 mg/mL compound in 100 mM acetate pH 5), the “Solubility, Condition 2 Acetate pH 5” value is “+ (denotes solubility at the given condition, as determined by UV absorbance being less than 0.1 AU at 340 nm and the sample being clear when manually inspected.)”. The “Solubility, Condition 3 Phosphate pH 6” value in series [2] (10 mg/mL compound in 100 mM phosphate pH 6) is “+ (denotes solubility at the given condition, as determined by UV absorbance being less than 0.1 AU at 340 nm and the sample being clear when manually inspected.)”. Further, the “Solubility, Condition 4 Phosphate pH 7” value in series [2] (10 mg/mL compound in 100 mM phosphate pH 7) is “+ (denotes solubility at the given condition, as determined by UV absorbance being less than 0.1 AU at 340 nm and the sample being clear when manually inspected.)”. The “Solubility, Condition 5 Phosphate pH 7.5” value in series [2] (10 mg/mL compound in 100 mM phosphate pH 7.5) was “+ (denotes solubility at the given condition, as determined by UV absorbance being less than 0.1 AU at 340 nm and the sample being clear when manually inspected.)”.
Regarding `CC[C@H](C)[C@H](NC(C)=O)C(=O)N[C@H]1CSSC[C@@H](C(=O)N[C@H](C(=O)N[C@@H](CCC(=O)O)C(=O)NCC(=O)N[C@@H](CCC(=O)O)C(N)=O)[C@@H](C)O)NC(=O)[C@H](CCCNC(=N)N)NC(=O)[C@H](Cc2c[nH]cn2)NC(=O)[C@H](CCC(=O)O)NC(=O)CNC(=O)[C@H](Cc2c[nH]c3ccccc23)NC(=O)[C@H](CC(=O)O)NC(=O)[C@H](CCC(N)=O)NC(=O)[C@H](Cc2c[nH]c3ccccc23)NC(=O)[C@H](C(C)C)NC1=O` [J, reference compound] (Ac-ICVWQDWGEHRCTEGE-NH2; disulfide 2-12), the half-inhibitory concentration (IC50) in series [1] (setting [4]) is 240 nM.
For the molecule `CC[C@H](C)[C@H](NC(C)=O)C(=O)N[C@H]1CSSC[C@@H](C(=O)N[C@H](C(N)=O)[C@@H](C)O)NC(=O)[C@H](CCCNC(=N)N)NC(=O)[C@H](Cc2c[nH]cn2)NC(=O)[C@H](CCCCN)NC(=O)CNC(=O)[C@H](Cc2c[nH]c3ccccc23)NC(=O)[C@H](CC(=O)O)NC(=O)[C@H](CCC(N)=O)NC(=O)[C@H](Cc2c[nH]c3ccccc23)NC(=O)[C@H]([C@@H](C)CC)NC1=O` [Compound 5] (Ac-ICIWQDWGKHRCT-NH2; disulfide 2-12), in series [1] (setting [3]), the IC50 was less than 250 nM.
As for `CC[C@H](C)[C@H](N)C(=O)N[C@H]1CSSC[C@@H](C(=O)N[C@H](C(N)=O)[C@@H](C)O)NC(=O)[C@H](CCCN=C(N)N)NC(=O)[C@H](Cc2cnc[nH]2)NC(=O)[C@H](Cc2cnc[nH]2)NC(=O)CNC(=O)[C@H](Cc2c[nH]c3ccccc23)NC(=O)[C@H](CC(=O)O)NC(=O)[C@H](CCC(N)=O)NC(=O)[C@H](C(C)C)NC(=O)[C@H](C(C)C)NC1=O` [Compstatin], in series [1] (Table 3, cells that print μM, read-out: IC50, in vitro analysis of inhibition of hemolysis), the IC50 was greater than 5000 nM.
As for `CC[C@H](C)[C@H](NC(C)=O)C(=O)N[C@H]1CSSC[C@@H](C(=O)N[C@H](C(N)=O)[C@@H](C)O)NC(=O)[C@H](CCCNC(=N)N)NC(=O)[C@H](Cc2c[nH]cn2)NC(=O)[C@H](CCC(=O)O)NC(=O)CNC(=O)[C@H](Cc2c[nH]c3ccccc23)NC(=O)[C@H](CC(=O)O)NC(=O)[C@H](CCC(N)=O)NC(=O)[C@H](Cc2c[nH]c3ccccc23)NC(=O)[C@H](C(C)C)NC1=O` [A, reference compound] (Ac-ICVWQDWGEHRCT-NH2; disulfide 2-12), the half-maximal inhibitory concentration (IC50) worked out at 350 nM in series [1] (setting [4]) and 350 nM in series [1] (Table 5, different residues at position 3 of Ac-IC(1)XWQDWGEHRC(1)T-NH2, read-out: IC50, CP hemolysis).
With `CC[C@H](C)[C@H](NC(C)=O)C(=O)N[C@H]1CSSC[C@@H](C(=O)N[C@H](C(=O)N[C@@H](CCC(=O)O)C(=O)NCC(=O)N[C@@H](CCCCN)C(N)=O)[C@@H](C)O)NC(=O)[C@H](CCCNC(=N)N)NC(=O)[C@H](Cc2c[nH]cn2)NC(=O)[C@H](CCC(=O)O)NC(=O)CNC(=O)[C@H](Cc2c[nH]c3ccccc23)NC(=O)[C@H](CC(=O)O)NC(=O)[C@H](CCC(N)=O)NC(=O)[C@H](Cc2c[nH]c3ccccc23)NC(=O)[C@H]([C@@H](C)CC)NC1=O` [Compound 39] (Ac-ICIWQDWGEHRCTEGK-NH2; disulfide 2-12), in series [1] (setting [3]), the IC50 was less than 100 nM.
For the molecule `CC[C@H](C)[C@H](NC(C)=O)C(=O)N[C@H]1CSSC[C@@H](C(=O)N[C@@H](CCC(=O)O)C(N)=O)NC(=O)[C@H](CCCNC(=N)N)NC(=O)[C@H](Cc2c[nH]cn2)NC(=O)[C@H](C)NC(=O)CNC(=O)[C@H](Cc2c[nH]c3ccccc23)NC(=O)[C@H](CC(=O)O)NC(=O)[C@H](CCC(N)=O)NC(=O)[C@H](Cc2c[nH]c3ccccc23)NC(=O)[C@H]([C@@H](C)CC)NC1=O` [Compound 12] (Ac-ICIWQDWGAHRCE-NH2; disulfide 2-12), the IC50 in series [1] (setting [3]) is less than 100 nM.
With `CC[C@H](C)[C@@H]1NC(=O)[C@@H](NC(=O)[C@H](Cc2ccc(O)cc2)NC(=O)[C@H](CCC(=O)O)NC(=O)[C@H](CO)NC(C)=O)CSSC[C@@H](C(=O)N(C)CC(=O)N[C@@H](CCC(=O)O)C(=O)N[C@@H](C)C(N)=O)NC(=O)[C@H](CCCNC(=N)N)NC(=O)[C@H](Cc2c[nH]cn2)NC(=O)[C@H](CCC(=O)O)NC(=O)CNC(=O)[C@H](Cc2c[nH]c3ccccc23)NC(=O)[C@H](CC(=O)O)NC(=O)[C@H](CCC(N)=O)NC(=O)[C@H](Cc2cn(C)c3ccccc23)NC1=O` [Compound 71] (Ac-SEYCI[Trp(1-Me)]QDWGEHRC[Sar]EA-NH2; disulfide 4-14), the half-inhibitory concentration (IC50) in series [1] (setting [3]) is less than 100 nM.
Same read-out and setting: to `CC[C@H](C)[C@@H]1NC(=O)[C@@H](NC(=O)[C@H](Cc2ccccc2)NC(=O)[C@H](CCC(=O)O)NC(C)=O)CSSC[C@@H](C(=O)N(C)CC(=O)N[C@@H](CCC(=O)O)C(=O)N[C@@H](C)C(=O)NCCOCCOCC(=O)NCCOCCOCC(=O)N[C@@H](CCCCNC(=O)CC[C@H](NC(=O)CNC(=O)CC[C@H](NC(=O)CCCCCCCCCCCCCCCCC(=O)O)C(=O)O)C(=O)O)C(N)=O)NC(=O)[C@H](CCCNC(=N)N)NC(=O)[C@H](Cc2c[nH]cn2)NC(=O)[C@H](CCC(=O)O)NC(=O)CNC(=O)[C@H](Cc2c[nH]c3ccccc23)NC(=O)[C@H](CC(=O)O)NC(=O)[C@H](CCC(N)=O)NC(=O)[C@H](Cc2cn(C)c3ccccc23)NC1=O` [Compound 145] (Ac-EFCI[Trp(1-Me)]QDWGEHRC[Sar]EA[AEEA][AEEA]K([γGlu-Gly-γGlu-C18 diacid])-NH2; disulfide 3-13) belongs less than 100 nM.
In the case of `CC[C@H](C)[C@@H]1NC(=O)[C@@H](NC(=O)[C@H](Cc2ccccc2)NC(=O)[C@H](CCC(=O)O)NC(=O)[C@H](CO)NC(C)=O)CSCC[C@@H](C(=O)N(C)CC(=O)N[C@@H](CCC(=O)O)C(=O)NCCOCCOCC(=O)NCCOCCOCC(=O)N[C@@H](CCCCNC(=O)CC[C@H](NC(=O)CNC(=O)CC[C@H](NC(=O)CCCCCCCCCCCCCCCCC(=O)O)C(=O)O)C(=O)O)C(=O)O)NC(=O)[C@H](CCCNC(=N)N)NC(=O)[C@H](Cc2c[nH]cn2)NC(=O)[C@H](CCC(=O)O)NC(=O)CN(C)C(=O)[C@H](Cc2c[nH]c3ccccc23)NC(=O)[C@H](CC(=O)O)NC(=O)[C@H](CCC(N)=O)NC(=O)[C@H](Cc2cn(C)c3ccccc23)NC1=O` [Compound 162, Ac-SEFA(1)I[1-Me-Trp]QDW[Sar]EHRhC(1)[Sar]E[Peg3][Peg3]-K([17-carboxy-heptadecanoyl][γGlu]G[γGlu])-OH] (Ac-SEFCI[Trp(1-Me)]QDW[Sar]EHR[Abu(4-yl)][Sar]E[AEEA][AEEA]K([γGlu-Gly-γGlu-C18 diacid])-OH; thioether 4-14), in series [1] (setting [3]), the IC50 was less than 100 nM.
